# Laboratory results from patent publication US20210130417A1, “SYSTEMS AND METHODS FOR DESIGNING SYNTHETIC ANTIMICROBIAL PEPTIDES” (University of Notre Dame du Lac, priority 2017, published 2021).
# Residues, ends and D or L forms follow the SMILES beside them.
# Legend:
# E. coli BL-21 = type: cell-based, Escherichia coli
# Description: The E. coli, P. aeruginosa, and P. syringae bacterial strains were routinely grown in LB broth (EMD Chemicals, Gibbstown, N.J.). […] All other bacteria were grown at 37° C. with agitation.
# Overnight bacterial cultures were diluted to an OD of 0.01. μL of diluted culture and 10 μL of 10× peptide or vehicle were added to the wells of a 96-well microtiter plate for a final 1× concentration. Bacteria were grown in desired growth conditions in a Synergy H1 Microplate Reader (Biotek, Winooski, Vt.). For MIC, serial two-fold dilutions of the peptides were used. MIC was determined as the concentration of peptide that prevented overnight growth as indicated by OD 600.
# [1] = tested on: Streptococcus pyogenes M1T1
# From the text: (§1) E. coli BL-21 frozen stock culture was purchased from Thermo Fischer. Pseudomonas aeruginosa PAO1 frozen stock culture was obtained from the Shrout Laboratory at the University of Notre Dame. Pseudomonas syringae frozen stock culture was obtained from the Innes Laboratory at Indiana University. Xanthomonas axonopodis pathovar Starr and Garces pathovar phaseoli (ATCC 9563) frozen stock culture was purchased from the ATCC. Streptococcus pyogenes M1T1 frozen stock culture was obtained from the lab of Dr. Victor Nizet, University of California San Diego. A methicillin resistant Staphylococcus aureus JKD frozen stock culture was obtained from the lab of Dr. Timothy Stinear, University of Melbourne.
# (§2) The E. coli, P. aeruginosa, and P. syringae bacterial strains were routinely grown in LB broth (EMD Chemicals, Gibbstown, N.J.). S. aureus and S. pyogenes were routinely grown in Todd Hewitt broth (Neogen Corporation, Lansing, Mich.). X. axonopodis was routinely grown in Nutrient Broth (Sigma-Aldrich Co., St. Louis, Mo.). P. syringae and X. axonopodis were grown at room temperature without agitation. All other bacteria were grown at 37° C. with agitation.
# (§3) Overnight bacterial cultures were diluted to an OD of 0.01. […] and 10 μL of 10× peptide or vehicle were added to the wells of a 96-well microtiter plate for a final 1× concentration. Bacteria were grown in desired growth conditions in a Synergy H1 Microplate Reader (Biotek, Winooski, Vt.). For MIC, serial two-fold dilutions of the peptides were used. MIC was determined as the concentration of peptide that prevented overnight growth as indicated by OD 600. For peptide screening, 8 μM or 4 μM peptide was screened against various bacteria. Peptides that inhibited overnight growth were selected for further study.
# [2] = tested on: sheep red blood cells (RBCs); conditions: compared to the PBS control
# Description: For hemolysis assays, 100 μL of sheep red blood cells (RBCs) were washed three times in cold PBS (Thermo Fischer). Washed cells were resuspended in 25 mL of PBS. Triton, PBS, or peptide in 10% DMSO/PBS were added to 180 μL of resuspended RBCs and incubated at 37° C. for 1 h. Samples were read at 450 nm. Data was expressed as percent hemolysis by relativizing to the Triton and PBS controls.
# [3] = tested on: Pseudomonas aeruginosa PAO1
# From the text: as §1, §2, §3
smiles,measurement,setting,value
CC[C@H](C)[C@H](NC(=O)[C@H](CCCCN)NC(=O)[C@H](CCC(=O)O)NC(=O)[C@H](CCCCN)NC(=O)[C@H](Cc1c[nH]c2ccccc12)NC(=O)[C@H](C)N)C(=O)N[C@@H](CCCNC(=N)N)C(=O)N[C@@H](CCC(N)=O)C(=O)N[C@@H](Cc1ccc(O)cc1)C(=O)N[C@@H](CC(C)C)C(=O)N[C@@H](CCCCN)C(=O)N[C@@H](CC(N)=O)C(=O)N[C@@H](CCC(=O)O)C(=O)N[C@H](C(=O)N[C@@H](CCCCN)C(=O)N[C@@H](CCCCN)C(=O)N[C@@H](CCCCN)C(=O)N[C@@H](Cc1c[nH]c2ccccc12)C(=O)N[C@@H](CCCNC(=N)N)C(=O)N[C@@H](CCCCN)C(=O)N[C@@H](C)C(=O)N[C@H](C(=O)N[C@H](C(=O)N[C@@H](C)C(=O)N[C@@H](Cc1c[nH]c2ccccc12)C(=O)O)[C@@H](C)CC)C(C)C)[C@@H](C)CC [Peptide 93] (H-AWKEKIRQYLKNEIKKKWRKAVIAW-OH),MIC E. coli,E. coli BL-21,1 µM
same,MIC S. pyogenes,[1],8 µM
same,hemolysis of library peptides,[2],low levels of hemolysis at higher concentrations
CC[C@H](C)[C@H](NC(=O)[C@H](CCCCN)NC(=O)[C@H](CC(N)=O)NC(=O)[C@H](CCCCN)NC(=O)[C@H](CC(C)C)NC(=O)[C@H](Cc1ccc(O)cc1)NC(=O)[C@H](CCC(N)=O)NC(=O)[C@H](CCCNC(=N)N)NC(=O)[C@@H](NC(=O)[C@@H](NC(=O)[C@H](CCCCN)NC(=O)[C@H](CCCCN)NC(=O)[C@H](Cc1c[nH]c2ccccc12)NC(=O)[C@H](C)N)[C@@H](C)O)[C@@H](C)CC)C(=O)N[C@@H](CCCCN)C(=O)N[C@@H](CCCCN)C(=O)N[C@@H](CCCCN)C(=O)N[C@@H](Cc1c[nH]c2ccccc12)C(=O)N[C@@H](CCCNC(=N)N)C(=O)N[C@@H](CCCCN)C(=O)N[C@@H](C)C(=O)N[C@H](C(=O)N[C@H](C(=O)N[C@@H](C)C(=O)N[C@@H](Cc1c[nH]c2ccccc12)C(=O)O)[C@@H](C)CC)C(C)C [Peptide 92] (H-AWKKTIRQYLKNKIKKKWRKAVIAW-OH),MIC E. coli,E. coli BL-21,4 µM
same,MIC S. pyogenes,[1],8 µM
same,hemolysis of library peptides,[2],no significant changes in hemolysis
CC[C@H](C)[C@H](NC(=O)[C@H](CCC(=O)O)NC(=O)[C@H](CC(N)=O)NC(=O)[C@H](CCCCN)NC(=O)[C@H](CC(C)C)NC(=O)[C@H](Cc1ccc(O)cc1)NC(=O)[C@H](CCCCN)NC(=O)[C@H](CCCNC(=N)N)NC(=O)[C@@H](NC(=O)[C@@H](NC(=O)[C@H](CCC(=O)O)NC(=O)[C@H](CCCCN)NC(=O)[C@H](Cc1c[nH]c2ccccc12)NC(=O)[C@H](C)N)[C@@H](C)O)[C@@H](C)CC)C(=O)N[C@@H](CCCCN)C(=O)N[C@@H](CCCCN)C(=O)N[C@@H](CCCCN)C(=O)N[C@@H](Cc1c[nH]c2ccccc12)C(=O)N[C@@H](CCCNC(=N)N)C(=O)N[C@@H](CCCCN)C(=O)N[C@@H](C)C(=O)N[C@H](C(=O)N[C@H](C(=O)N[C@@H](C)C(=O)N[C@@H](Cc1c[nH]c2ccccc12)C(=O)O)[C@@H](C)CC)C(C)C [Peptide 94] (H-AWKETIRKYLKNEIKKKWRKAVIAW-OH),MIC E. coli,E. coli BL-21,2 µM
same,MIC P. aeruginosa,[3],8 µM
same,MIC S. pyogenes,[1],10 µM
same,hemolysis of library peptides,[2],low levels of hemolysis at higher concentrations
CC[C@H](C)[C@H](NC(=O)[C@H](CCCCN)NC(=O)[C@H](CC(N)=O)NC(=O)[C@H](CCCCN)NC(=O)[C@H](CC(C)C)NC(=O)[C@H](Cc1ccc(O)cc1)NC(=O)[C@H](CCC(N)=O)NC(=O)[C@H](CCCNC(=N)N)NC(=O)[C@@H](NC(=O)[C@@H](NC(=O)[C@H](CCCCN)NC(=O)[C@H](CCCCN)NC(=O)CNC(=O)[C@H](C)N)[C@@H](C)O)[C@@H](C)CC)C(=O)N[C@@H](CCCCN)C(=O)N[C@@H](CCCCN)C(=O)N[C@@H](CCCCN)C(=O)N[C@@H](Cc1c[nH]c2ccccc12)C(=O)N[C@@H](CCCNC(=N)N)C(=O)N[C@@H](CCCCN)C(=O)N[C@@H](C)C(=O)N[C@H](C(=O)N[C@H](C(=O)N[C@@H](C)C(=O)N[C@@H](Cc1c[nH]c2ccccc12)C(=O)O)[C@@H](C)CC)C(C)C [Peptide 52] (H-AGKKTIRQYLKNKIKKKWRKAVIAW-OH),MIC E. coli,E. coli BL-21,8 µM
same,MIC P. aeruginosa,[3],10 µM
same,MIC S. pyogenes,[1],8 µM
same,hemolysis of library peptides,[2],low levels of hemolysis at higher concentrations
CC[C@H](C)[C@H](NC(=O)[C@H](CCCCN)NC(=O)[C@H](CC(N)=O)NC(=O)[C@H](CCCCN)NC(=O)[C@H](CC(C)C)NC(=O)[C@H](Cc1ccc(O)cc1)NC(=O)[C@H](CCC(N)=O)NC(=O)[C@H](CCCNC(=N)N)NC(=O)[C@@H](NC(=O)[C@@H](NC(=O)[C@H](CCC(=O)O)NC(=O)[C@H](CCCCN)NC(=O)[C@H](Cc1c[nH]c2ccccc12)NC(=O)[C@H](C)N)[C@@H](C)O)[C@@H](C)CC)C(=O)N[C@@H](CCCCN)C(=O)N[C@@H](CCCCN)C(=O)N[C@@H](CCCCN)C(=O)N[C@@H](Cc1c[nH]c2ccccc12)C(=O)N[C@@H](CCCNC(=N)N)C(=O)N[C@@H](CCCCN)C(=O)N[C@@H](C)C(=O)N[C@H](C(=O)N[C@H](C(=O)N[C@@H](C)C(=O)N[C@@H](Cc1c[nH]c2ccccc12)C(=O)O)[C@@H](C)CC)C(C)C [Peptide 91] (H-AWKETIRQYLKNKIKKKWRKAVIAW-OH),MIC E. coli,E. coli BL-21,2 µM
same,MIC S. pyogenes,[1],10 µM
same,hemolysis of library peptides,[2],low levels of hemolysis at higher concentrations
CC[C@H](C)[C@H](NC(=O)[C@H](CCCCN)NC(=O)[C@H](CC(N)=O)NC(=O)[C@H](CCCCN)NC(=O)[C@H](CC(C)C)NC(=O)[C@H](Cc1ccc(O)cc1)NC(=O)[C@H](CCC(N)=O)NC(=O)[C@H](CCCNC(=N)N)NC(=O)[C@@H](NC(=O)[C@@H](NC(=O)[C@H](CCCCN)NC(=O)[C@H](CCCCN)NC(=O)CNC(=O)[C@H](C)N)[C@@H](C)O)[C@@H](C)CC)C(=O)N[C@@H](CCCCN)C(=O)N[C@@H](CCCCN)C(=O)N[C@@H](CCCCN)C(=O)NCC(=O)N[C@@H](CCCNC(=N)N)C(=O)N[C@@H](CCCCN)C(=O)N[C@@H](Cc1c[nH]c2ccccc12)C(=O)N[C@H](C(=O)N[C@H](C(=O)N[C@@H](C)C(=O)N[C@@H](Cc1c[nH]c2ccccc12)C(=O)O)[C@@H](C)CC)C(C)C [Peptide 60] (H-AGKKTIRQYLKNKIKKKGRKWVIAW-OH),hemolysis of library peptides,[2],no significant changes in hemolysis
CC[C@H](C)[C@H](NC(=O)[C@H](CCCCN)NC(=O)[C@H](CC(N)=O)NC(=O)[C@H](CCCCN)NC(=O)[C@H](CC(C)C)NC(=O)[C@H](Cc1ccc(O)cc1)NC(=O)[C@H](CCC(N)=O)NC(=O)[C@H](CCCNC(=N)N)NC(=O)[C@@H](NC(=O)[C@@H](NC(=O)[C@H](CCCCN)NC(=O)[C@H](CCCCN)NC(=O)[C@H](Cc1c[nH]c2ccccc12)NC(=O)[C@H](C)N)[C@@H](C)O)[C@@H](C)CC)C(=O)N[C@@H](CCCCN)C(=O)N[C@@H](CCCCN)C(=O)N[C@@H](CCCCN)C(=O)NCC(=O)N[C@@H](CCCNC(=N)N)C(=O)N[C@@H](CCCCN)C(=O)N[C@@H](C)C(=O)N[C@H](C(=O)N[C@H](C(=O)N[C@@H](C)C(=O)N[C@@H](Cc1c[nH]c2ccccc12)C(=O)O)[C@@H](C)CC)C(C)C [Peptide 20] (H-AWKKTIRQYLKNKIKKKGRKAVIAW-OH),MIC E. coli,E. coli BL-21,8 µM
same,MIC P. aeruginosa,[3],10 µM
same,MIC S. pyogenes,[1],8 µM
same,hemolysis of library peptides,[2],no significant changes in hemolysis
CC[C@H](C)[C@H](NC(=O)[C@H](CCCCN)NC(=O)[C@H](CCC(=O)O)NC(=O)[C@H](CCCCN)NC(=O)[C@H](Cc1c[nH]c2ccccc12)NC(=O)[C@H](C)N)C(=O)N[C@@H](CCCNC(=N)N)C(=O)N[C@@H](CCCCN)C(=O)N[C@@H](CCCCN)C(=O)N[C@@H](CC(C)C)C(=O)N[C@@H](CCCCN)C(=O)N[C@@H](CC(N)=O)C(=O)N[C@@H](CCC(=O)O)C(=O)N[C@H](C(=O)N[C@@H](CCCCN)C(=O)N[C@@H](CCCCN)C(=O)N[C@@H](CCCCN)C(=O)N[C@@H](Cc1c[nH]c2ccccc12)C(=O)N[C@@H](CCCNC(=N)N)C(=O)N[C@@H](CCCCN)C(=O)N[C@@H](C)C(=O)N[C@H](C(=O)N[C@H](C(=O)N[C@@H](C)C(=O)N[C@@H](Cc1c[nH]c2ccccc12)C(=O)O)[C@@H](C)CC)C(C)C)[C@@H](C)CC [Peptide 96] (H-AWKEKIRKKLKNEIKKKWRKAVIAW-OH),MIC E. coli,E. coli BL-21,2 µM
same,MIC P. aeruginosa,[3],8 µM
same,MIC S. pyogenes,[1],8 µM
same,hemolysis of library peptides,[2],no significant changes in hemolysis
CC[C@H](C)[C@H](NC(=O)[C@H](CCC(=O)O)NC(=O)[C@H](CC(N)=O)NC(=O)[C@H](CCCCN)NC(=O)[C@H](CC(C)C)NC(=O)[C@H](Cc1ccc(O)cc1)NC(=O)[C@H](CCC(N)=O)NC(=O)[C@H](CCCNC(=N)N)NC(=O)[C@@H](NC(=O)[C@@H](NC(=O)[C@H](CCCCN)NC(=O)[C@H](CCCCN)NC(=O)[C@H](Cc1c[nH]c2ccccc12)NC(=O)[C@H](C)N)[C@@H](C)O)[C@@H](C)CC)C(=O)N[C@@H](CCCCN)C(=O)N[C@@H](CCCCN)C(=O)N[C@@H](CCCCN)C(=O)N[C@@H](Cc1c[nH]c2ccccc12)C(=O)N[C@@H](CCCNC(=N)N)C(=O)N[C@@H](CCCCN)C(=O)N[C@@H](C)C(=O)N[C@H](C(=O)N[C@H](C(=O)N[C@@H](C)C(=O)N[C@@H](Cc1c[nH]c2ccccc12)C(=O)O)[C@@H](C)CC)C(C)C [Peptide 90] (H-AWKKTIRQYLKNEIKKKWRKAVIAW-OH),MIC E. coli,E. coli BL-21,2 µM
same,MIC S. pyogenes,[1],8 µM
same,hemolysis of library peptides,[2],low levels of hemolysis at higher concentrations
